Experiments:
[1] = molecular target: T1, Kv1.3 potassium channel (Homo sapiens, UniProt P22001); assay: Kv1.3 potassium channel blocker activity, automated whole-cell patch clamp (Patchliner); format: cell-based; conditions: Kv1.3 potassium channel, whole-cell patch clamp
T1 construct: expressed in transfected cells
How it was run: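 IC50 came from Hill-equation fits of peak and AUC currents from the final pulse at each concentration, normalized to compound-free control. Compounds applied consecutively at 30 nM to 100 μM (up to 0.3% DMSO) to Kv1.3-expressing CHO-K1 cells, P/4 leak subtraction. Pulses were +40 mV, 100 ms, from −90 mV holding, at 0.1 Hz on Patchliner.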

[2] = molecular target: T2, hERG channel (Homo sapiens, UniProt Q12809); assay: hERG electrophysiology, automated whole-cell patch clamp (Patchliner); format: cell-based; conditions: hERG channel, whole-cell patch clamp
T2 construct: expressed in transfected cells
How it was run: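 Automated whole-cell patch clamp on CHO-K1 cells stably expressing hERG; 30 nM–100 μM applied cumulatively to the same cell, ≤0.3% DMSO. Pulses: −80 mV holding, +20 mV for 300 ms, −50 mV for 300 ms tail, 0.3 Hz, 70 per concentration. Last-pulse AUC and peak, normalized to control, were fitted to a Hill equation for IC50.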

T2 sequence (Q12809 whole entry): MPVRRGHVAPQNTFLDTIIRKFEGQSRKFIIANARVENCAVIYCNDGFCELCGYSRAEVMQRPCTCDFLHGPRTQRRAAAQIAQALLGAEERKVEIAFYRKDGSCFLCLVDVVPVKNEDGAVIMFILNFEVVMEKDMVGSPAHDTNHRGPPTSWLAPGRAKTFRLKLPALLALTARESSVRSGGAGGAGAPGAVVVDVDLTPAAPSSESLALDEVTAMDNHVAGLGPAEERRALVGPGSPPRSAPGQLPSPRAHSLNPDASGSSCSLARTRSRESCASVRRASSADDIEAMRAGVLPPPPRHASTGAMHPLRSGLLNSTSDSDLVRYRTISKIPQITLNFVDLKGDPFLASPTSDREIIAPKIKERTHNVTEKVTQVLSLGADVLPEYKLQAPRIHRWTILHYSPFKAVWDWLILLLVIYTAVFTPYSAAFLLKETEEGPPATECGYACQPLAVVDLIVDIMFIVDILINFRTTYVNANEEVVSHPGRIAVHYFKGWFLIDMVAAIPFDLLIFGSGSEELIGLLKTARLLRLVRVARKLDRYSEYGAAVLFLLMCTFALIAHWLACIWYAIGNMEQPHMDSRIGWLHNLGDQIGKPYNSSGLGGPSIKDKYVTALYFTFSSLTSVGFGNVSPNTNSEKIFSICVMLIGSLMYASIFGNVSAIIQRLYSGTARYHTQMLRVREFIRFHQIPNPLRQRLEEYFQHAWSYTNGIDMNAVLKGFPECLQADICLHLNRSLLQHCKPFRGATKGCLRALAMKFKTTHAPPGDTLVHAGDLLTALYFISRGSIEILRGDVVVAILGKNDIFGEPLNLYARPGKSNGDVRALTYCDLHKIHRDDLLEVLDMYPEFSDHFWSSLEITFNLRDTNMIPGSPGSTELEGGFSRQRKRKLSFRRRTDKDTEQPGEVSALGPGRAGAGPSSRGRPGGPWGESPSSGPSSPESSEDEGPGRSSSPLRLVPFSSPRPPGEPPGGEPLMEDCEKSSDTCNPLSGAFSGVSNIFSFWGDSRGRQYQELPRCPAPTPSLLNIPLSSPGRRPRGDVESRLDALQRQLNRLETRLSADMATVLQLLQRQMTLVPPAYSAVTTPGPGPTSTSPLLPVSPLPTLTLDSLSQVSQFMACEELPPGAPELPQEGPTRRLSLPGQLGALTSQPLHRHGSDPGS
T1 sequence (P22001 whole entry): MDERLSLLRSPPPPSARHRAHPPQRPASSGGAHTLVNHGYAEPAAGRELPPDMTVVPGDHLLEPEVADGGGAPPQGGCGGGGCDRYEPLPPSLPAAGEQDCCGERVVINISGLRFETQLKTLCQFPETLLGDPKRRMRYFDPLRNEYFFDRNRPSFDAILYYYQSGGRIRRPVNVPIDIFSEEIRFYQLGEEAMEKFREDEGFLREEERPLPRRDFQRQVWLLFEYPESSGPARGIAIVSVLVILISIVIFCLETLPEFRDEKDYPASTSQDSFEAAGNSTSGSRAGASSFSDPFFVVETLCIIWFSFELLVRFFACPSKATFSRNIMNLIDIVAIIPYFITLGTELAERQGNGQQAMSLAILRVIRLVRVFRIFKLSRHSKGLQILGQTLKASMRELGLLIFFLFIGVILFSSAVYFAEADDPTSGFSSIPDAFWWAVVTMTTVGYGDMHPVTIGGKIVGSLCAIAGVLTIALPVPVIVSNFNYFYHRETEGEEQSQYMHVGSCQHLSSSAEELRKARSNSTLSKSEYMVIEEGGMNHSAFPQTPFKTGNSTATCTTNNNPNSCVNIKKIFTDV

| Compound | IC50 [1] | IC50 [2] |
| --- | --- | --- |
| CC(=O)NCC1OC(=O)N2C[C@@H](c3c(O)ccc(Cl)c3Cl)C[C@@H]12 (stereo partly drawn) [Compound 276, N-[[(6R,7aS)-6-(2,3-dichloro-6-hydroxyphenyl)-3-oxo-tetrahydro-1H-pyrrolo[1,2-c][1,3]oxazol-1-yl]methyl]acetamide] | < 1 µM | > 30 µM |
| CNCC1OC(=O)N2C[C@@H](c3c(O)ccc(Cl)c3Cl)C[C@@H]12 (stereo partly drawn) [Compound 281, (6R,7aS)-6-(2,3-dichloro-6-hydroxyphenyl)-1-[(methylamino)methyl]-tetrahydro-1H-pyrrolo[1,2-c][1,3]oxazol-3-one] | < 1 µM | < 30 µM |
| O=C(C1OC(=O)N2C[C@@H](c3c(O)ccc(Cl)c3Cl)C[C@@H]12)N1CCNCC1 (stereo partly drawn) [Compound 289, (6R,7aS)-6-(2,3-dichloro-6-hydroxyphenyl)-1-(piperazine-1-carbonyl)-tetrahydro-1H-pyrrolo[1,2-c][1,3]oxazol-3-one] | < 1 µM | > 30 µM |
| NCCN1C[C@@H]2C[C@H](c3c(O)ccc(Cl)c3Cl)CN2C1=O [Compound 292, (6R,7aS)-2-(2-aminoethyl)-6-(2,3-dichloro-6-hydroxyphenyl)-tetrahydro-1H-pyrrolo[1,2-c]imidazol-3-one] | < 1 µM | < 30 µM |
| O=C1NC[C@@H]2C[C@H](c3c(O)ccc(Cl)c3Cl)CN12 [Compound 293, (6R,7aS)-6-(2,3-dichloro-6-hydroxyphenyl)-hexahydropyrrolo[1,2-c]imidazol-3-one] | < 1 µM | > 30 µM |

From US20230049231A1 (priority 2019, published 2023)
